Measurements reported in patent US9550782B2, “Compounds and methods for treating diabetes” (Medivation Technologies, Inc., priority 2011, dated 2017).
Where “and” joins values, the source holds several entries; their conditions need not be identical. Equal entries are not always repeated.

Key:
[1] = molecular target: T1, human recombinant adrenergic α2B receptor (Homo sapiens, UniProt P18089); experiment: Radioligand binding, adrenergic α2B ([3H]Rauwolscine); conditions: for Percentage inhibition of ligand binding, Adrenergic α2B (0.03 μM): repeat datapoints each shown
T1 construct: expressed in transfected cells; host or cells: CHO-K1
T1 sequence (P18089 1-450): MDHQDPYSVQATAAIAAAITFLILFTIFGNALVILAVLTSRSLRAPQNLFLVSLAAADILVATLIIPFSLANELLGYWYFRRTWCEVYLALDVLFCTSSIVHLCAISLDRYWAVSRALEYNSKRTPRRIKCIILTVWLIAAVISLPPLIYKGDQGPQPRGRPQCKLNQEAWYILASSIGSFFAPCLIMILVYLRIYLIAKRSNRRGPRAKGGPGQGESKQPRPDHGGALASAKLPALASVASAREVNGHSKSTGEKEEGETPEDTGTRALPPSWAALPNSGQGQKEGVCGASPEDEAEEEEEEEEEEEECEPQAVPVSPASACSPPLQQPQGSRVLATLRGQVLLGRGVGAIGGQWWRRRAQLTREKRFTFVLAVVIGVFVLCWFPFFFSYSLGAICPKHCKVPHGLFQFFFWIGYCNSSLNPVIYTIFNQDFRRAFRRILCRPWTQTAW
Description: To evaluate in radioligand binding assays the activity of compounds of the invention, human recombinant adrenergic α2B receptor expressed in Chinese hamster ovary (CHO) K1 cells (Uhlen, S. et al, Eur. J. Pharmacol. 343(1):93, 1998) in a modified Tris-HCl buffer (50 mM Tris-HCl, pH 7.4, 12.5 mM MgCl2, 1 mM EDTA, 0.2% BSA) was used. Compounds of the invention were incubated with 2.5 nM [3H]Rauwolscine for 60 min at 25° C. Non-specific binding was estimated in the presence of 10 μM Prazosin. Receptor proteins were filtered and washed, the filters were then counted to determine [3H]Rauwolscine specifically bound. […] Compounds of the invention were tested in this biochemical assay and percent inhibition of specific binding was determined. Biochemical assay results are presented as the percent inhibition of specific binding in Table B1.

[2] = molecular target: T2, human recombinant adrenergic α2A receptor (Homo sapiens, UniProt P08913); experiment: Radioligand binding, adrenergic α2A ([3H]MK-912); conditions: [3H]MK-912
T2 construct: expressed in transfected cells; host or cells: insect Sf9 cells
T2 sequence (P08913 1-465): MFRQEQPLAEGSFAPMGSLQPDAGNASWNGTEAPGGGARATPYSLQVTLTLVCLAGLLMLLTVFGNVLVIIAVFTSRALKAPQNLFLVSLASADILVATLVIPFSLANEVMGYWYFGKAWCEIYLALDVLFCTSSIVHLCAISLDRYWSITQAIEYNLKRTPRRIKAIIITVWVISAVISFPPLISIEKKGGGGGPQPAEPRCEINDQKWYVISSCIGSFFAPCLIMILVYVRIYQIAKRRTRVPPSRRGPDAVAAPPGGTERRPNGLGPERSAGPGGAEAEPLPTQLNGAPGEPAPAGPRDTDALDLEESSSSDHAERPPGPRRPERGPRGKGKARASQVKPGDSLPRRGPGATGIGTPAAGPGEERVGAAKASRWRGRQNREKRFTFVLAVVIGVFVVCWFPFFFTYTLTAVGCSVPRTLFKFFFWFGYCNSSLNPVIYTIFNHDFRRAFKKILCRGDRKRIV
Description: To evaluate in radioligand binding assays the activity of compounds of the invention, human recombinant adrenergic α2A receptor expressed in insect Sf9 cells (Uhlen, S. et al, J. Pharmacol. Exp. Ther. 271:1558, 1994) in a modified Tris-HCl buffer (50 mM Tris-HCl, pH 7.4, 12.5 mM MgCl2, 2 mM EDTA) was used. Compounds of invention were incubated with 1 nM [^3H]MK-912 for 60 min at 25° C. MK912 is (2S-trans)-1,3,4,5′,6,6′,7,12b-octahydro-1′,3′-dimethyl-spiro[2H-benzofuro[2,3-a]quinolizine-2,4′(1′H)-pyrimidin]-2′(3′H)-one hydrochloride. Non-specific binding was estimated in the presence of 10 μM WB-4101 (2-(2,6-Dimethoxyphenoxyethyl)aminomethyl-1,4-benzodioxane hydrochloride). Receptor proteins were filtered and washed, the filters were then counted to determine [^3H]MK-912 specifically bound. […] Compounds of the invention were tested in this biochemical assay and percent inhibition of specific binding was determined. Biochemical assay results are presented as the percent inhibition of specific binding in Table B1.

[3] = molecular target: T3, rat adrenergic α1B receptor (Rattus norvegicus, UniProt P15823); experiment: Radioligand binding, adrenergic α1B ([3H]Prazosin); set-up: species or system Wistar Rat
T3 construct: rat adrenergic α1B receptor obtained from Wistar Rat liver; from tissue; host or cells: Wistar rat liver
T3 sequence (P15823 1-515): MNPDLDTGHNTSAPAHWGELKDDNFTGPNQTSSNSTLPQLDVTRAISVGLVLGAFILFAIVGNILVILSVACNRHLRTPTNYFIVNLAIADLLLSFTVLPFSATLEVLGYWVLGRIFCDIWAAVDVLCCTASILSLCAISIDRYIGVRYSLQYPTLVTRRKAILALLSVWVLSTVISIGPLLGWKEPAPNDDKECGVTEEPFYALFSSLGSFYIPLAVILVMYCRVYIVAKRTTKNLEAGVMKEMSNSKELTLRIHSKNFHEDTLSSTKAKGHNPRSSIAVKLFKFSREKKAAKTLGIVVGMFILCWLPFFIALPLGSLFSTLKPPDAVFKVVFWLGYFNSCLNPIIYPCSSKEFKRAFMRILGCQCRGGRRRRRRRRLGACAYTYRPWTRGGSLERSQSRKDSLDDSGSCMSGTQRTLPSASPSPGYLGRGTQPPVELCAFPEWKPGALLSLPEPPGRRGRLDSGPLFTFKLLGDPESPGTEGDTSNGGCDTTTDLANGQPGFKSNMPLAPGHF
Description: To evaluate in radioligand binding assays the activity of compounds of the invention, rat adrenergic α1B receptor obtained from Wistar Rat liver (Garcia-S'ainz, J. et al, Biochem. Biophys. Res. Commun. 186:760, 1992; Michel, A. et al, Br. J. Pharmacol. 98:883, 1989) in a modified Tris-HCl buffer (50 mM Tris-HCl buffer, pH 7.4, 0.5 mM EDTA) was used. Compounds of the invention were incubated with 0.25 nM [^3H]Prazosin for 60 min at 25° C. Non-specific binding was estimated in the presence of 10 μM phentolamine. Receptor proteins were filtered and washed, the filters were then counted to determine [^3H]Prazosin specifically bound. […] Compounds of the invention were tested in this biochemical assay and percent inhibition of specific binding was determined. Biochemical assay results are presented as the percent inhibition of specific binding in Table B1.

[4] = compound at 0.1 μM, repeat datapoints each shown, 0.1 µM
[5] = compound at 0.03 μM, repeat datapoints each shown

| Structure (SMILES) | Percentage inhibition of ligand binding, Adrenergic α2B (0.03 μM) ([1]; compound at 0.03 μM, 0.03 µM) | Percentage inhibition of ligand binding, Adrenergic α2A (0.1 μM) [2, 4] | Percentage inhibition of ligand binding, Adrenergic α1B (0.1 μM) [3, 4] | Percentage inhibition of ligand binding, Adrenergic α1B ([3]; 0.1 μM compound, 0.1 µM) | also measured |
| --- | --- | --- | --- | --- | --- |
| CN1CCc2c(n(CC(C)(O)c3cccnc3)c3ccc(Cl)cc23)C1 (single isomer, unassigned) [28a] | 96% | 28% | 41% |  |  |
| CN1CCc2c(c3cc(Cl)ccc3n2CC(O)c2cccnc2)C1 (single isomer, unassigned) [7a] | 59% | 1% | 28% |  |  |
| Cc1ccc2c(c1)c1c(n2CC(C)(O)c2ccc[n+]([O-])c2)CCN(C)C1 (single isomer, unassigned) [56b] | 28% | 17% | 6% |  |  |
| Cc1ccc2c(c1)c1c(n2CC(C)(O)c2ccc[n+]([O-])c2)CCN(C)C1 (single isomer, unassigned) [56a] | 20% | 11% | 1% |  |  |
| CN1CCc2c(c3ccc(C(F)(F)F)cc3n2CC(O)c2cccnc2)C1 (single isomer, unassigned) [40b] | 29% | 13% | −2% |  |  |
| Cc1ccc2c(c1)c1c(n2CC(O)c2ccncc2Cl)CCN(C)C1 (single isomer, unassigned) [135b] |  |  |  | 30% | Percentage inhibition of ligand binding, Adrenergic α2B ([1]; 0.03 μM compound, 0.03 µM): 68%; Percentage inhibition of ligand binding, Adrenergic α2A ([2]; 0.1 μM compound, 0.1 µM): 22% |
| CN1CCc2c(c3ccc(C(F)(F)F)cc3n2CC(O)c2cccnc2)C1 (single isomer, unassigned) [40a] | 27% | 7% | 2% |  |  |
| Cc1cnc2c(c1)c1c(n2CC(C)(O)c2cccnc2)CCN(C)C1 (single isomer, unassigned) [II-99b] |  |  |  |  | Percentage inhibition of ligand binding, Adrenergic α2B ([1]; compound at 0.03 μM, 0.03 µM): 7%; Percentage inhibition of ligand binding, Adrenergic α2A ([2]; compound at 0.1 μM, 0.1 µM): 16%; Percentage inhibition of ligand binding, Adrenergic α1B ([3]; compound at 0.1 μM, 0.1 µM): 5% |
| Cc1cnc2c(c1)c1c(n2CC(C)(O)c2ccc(F)cc2)CCN(C)C1 (single isomer, unassigned) [138a] |  |  |  | 61% | Percentage inhibition of ligand binding, Adrenergic α2B ([1]; 0.03 μM compound, 0.03 µM): 63%; Percentage inhibition of ligand binding, Adrenergic α2A ([2]; 0.1 μM compound, 0.1 µM): −8% |
| Cc1cnc2c(c1)c1c(n2CC(O)c2ccc(C)nc2)CCN(C)C1 (single isomer, unassigned) [II-100b] |  |  |  |  | Percentage inhibition of ligand binding, Adrenergic α2B ([1]; compound at 0.03 μM, 0.03 µM): 1%; Percentage inhibition of ligand binding, Adrenergic α2A ([2]; compound at 0.1 μM, 0.1 µM): 4%; Percentage inhibition of ligand binding, Adrenergic α1B ([3]; compound at 0.1 μM): 24% |
| Cc1ccc2c(c1)c1c(n2CC(O)c2ccncc2)CC2CCCCN2C1 (racemic) [75d] | 102% | 49% | 26% |  |  |
| Cc1ccc2c(c1)c1c(n2CC(O)c2ccncc2)CC2CCCCN2C1 (racemic) [75a] | 77% | 11% | 61% |  |  |
| Cc1ccc2c(c1)c1c(n2CC(C)(O)c2ccc(C)nc2)CCN(C)C1 (single isomer, unassigned) [29a] | 98% and 100% | 35% and 39% | 32% and 38% |  | Percentage inhibition of ligand binding, Adrenergic α2A (0.03 μM) [2, 5]: 16%; Percentage inhibition of ligand binding, Adrenergic α1B (0.03 μM) [3, 5]: 19% |
| Cc1ccc(CCn2c3c(c4cc(Cl)cnc42)C2CCCN2CC3)cn1 (single isomer, unassigned) [137b] |  |  |  | 23% | Percentage inhibition of ligand binding, Adrenergic α2B ([1]; 0.03 μM compound, 0.03 µM): 30%; Percentage inhibition of ligand binding, Adrenergic α2A ([2]; 0.1 μM compound): 6% |
| Cc1ccc2c(c1)c1c(n2CC(N)c2ccncc2)CC2CCC1N2C (single isomer, unassigned) [155b] |  |  |  | 1% | Percentage inhibition of ligand binding, Adrenergic α2B ([1]; 0.03 μM compound): 5%; Percentage inhibition of ligand binding, Adrenergic α2A ([2]; 0.1 μM compound, 0.1 µM): 5% |
| Cc1ccc2c(c1)c1c(n2CC(c2ccncc2)N(C)C)CCN(C)C1 (single isomer, unassigned) [150a] |  |  |  | 16% | Percentage inhibition of ligand binding, Adrenergic α2B ([1]; 0.03 μM compound, 0.03 µM): 88% and 96%; Percentage inhibition of ligand binding, Adrenergic α2B ([1]; 0.1 μM compound): 100%; Percentage inhibition of ligand binding, Adrenergic α2A ([2]; 0.1 μM compound, 0.1 µM): 16% |
| Cc1cnc2c(c1)c1c(n2CC(N)c2ccc(C#N)cc2)CCNC1 (single isomer, unassigned) [160a] |  |  |  | 35% | Percentage inhibition of ligand binding, Adrenergic α2B ([1]; 0.03 μM compound, 0.03 µM): 43%; Percentage inhibition of ligand binding, Adrenergic α2A ([2]; 0.1 μM compound, 0.1 µM): −12% |
| Cc1cnc2c(c1)c1c(n2CC(C)(O)c2cccnc2)CCN2CCCC12 (single isomer, unassigned) [26c] | 1% and 7% | 19% | 1% |  |  |
| Cc1ccc2c(c1)c1c(n2CC(O)c2ccncc2)C(C)N2CCC1C2 (single isomer, unassigned) [38a] | 35% | 14% | 11% |  |  |
